This passage reports IC50 results from patent publication US10919885B2, “Compounds and uses thereof” (Yumanity Therapeutics, Inc., priority 2018, dated 2021).

As a reminder, the IC50 is the concentration that inhibits the measured activity by half. Read a low IC50 as greater potency.

Where only a bound is given, the exact number is not on record here.

In this assay the target is human SCD1 (Homo sapiens (Human), UniProt O00767). Put plainly: Yeast growth assay, strain expressing human SCD1 as the sole desaturase (reduced growth as surrogate for SCD inhibition). The class given is cell-based. Particulars: yeast with OLE1 deleted expressing human SCD1 from a plasmid; growth read as OD600 after 40 h at 30° C.; top drug concentration 33.3 μM. As to the method: Strains expressing SCD1 or SCD5 as the sole desaturase, the human SCD1 and SCD5 genes were used to evaluate inhibition of SCD1/SCD5 using reduced growth as a surrogate for SCD inhibition. These yeast strains express human SCD1 or SCD5 from a plasmid harbored in a strain in which the yeast OLE1 gene is deleted.
Sequence of human SCD1 (O00767 whole entry): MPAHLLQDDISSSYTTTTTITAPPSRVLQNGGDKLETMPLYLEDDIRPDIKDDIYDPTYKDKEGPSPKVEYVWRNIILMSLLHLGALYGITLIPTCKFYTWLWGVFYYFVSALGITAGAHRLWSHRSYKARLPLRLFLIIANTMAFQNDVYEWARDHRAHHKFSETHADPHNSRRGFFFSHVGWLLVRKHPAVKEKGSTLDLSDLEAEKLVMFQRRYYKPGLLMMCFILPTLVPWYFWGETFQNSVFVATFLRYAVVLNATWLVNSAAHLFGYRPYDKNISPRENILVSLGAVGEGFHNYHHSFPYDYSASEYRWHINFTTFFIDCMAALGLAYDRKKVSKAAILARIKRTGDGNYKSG
All compound profiling experiments were performed using the same basic protocol. Yeast were cultured using standard techniques in complete synthetic media lacking uracil and containing yeast nitrogen base supplemented with 2% (w/v) glucose (SD-Ura) Starter cultures were inoculated in 3 mL SD-Ura media containing 0.01% tween and 0.2 mM palmitoleic and oleic acid. Cultures were incubated overnight in a 30° C. shaker incubator (225 rpm). Saturated morning cultures were centrifuged, washed in SD-Ura media lacking TWEEN-20 and fatty acids, and then diluted 1:20 in fresh SD-Ura media also lacking TWEEN-20 and fatty acids.
Compound administration was performed in two separate steps. First, 15 μL of SD-Ura was dispensed into clear 384-well assay plates using a MULTIDROP™ Combi reagent dispenser. […] The cultures described above were centrifuged and washed with media lacking TWEEN-20 or oleic and palmitoleic acids.
After yeast delivery, assay plates were incubated under humidified conditions at 30° C. for 40 h. Yeast growth was monitored by reading the OD600 of each well using a microplate reader (Perkin Elmer EnVision™).
Turning to `O=C(Nc1cc(-c2ccco2)on1)c1cnn(Cc2ccccc2)c1` [Compound 49, 1-benzyl-N-[5-(2-furyl)isoxazol-3-yl]pyrazole-4-carboxamide], the IC50 is > 45 µM.
With `COc1ccccc1Cn1cc(NC(=O)c2cc(-c3ccccc3)on2)cn1` [Compound 125, N-(1-(2-methoxybenzyl)-1H-pyrazol-4-yl)-5-phenylisoxazole-3-carboxamide] the figure was > 45 µM.
`O=C(c1cc(-c2ccccc2)on1)N1CC=C(c2cc(F)ccc2Cl)CC1` [Compound 305] showed a 50% inhibitory concentration (IC50) of 4.8 µM.
Consider `O=C(Nc1cnn(Cc2cnccc2C(F)(F)F)c1)c1cc(-c2ccccn2)on1` [Compound 197, 5-(pyridin-2-yl)-N-(1-{[4-(trifluoromethyl)pyridin-3-yl]methyl}-1H-pyrazol-4-yl)-1,2-oxazole-3-carboxamide], for which the IC50 is > 45 µM.
As to `O=C(c1cc(-c2ccc3c(c2)OCO3)on1)N1CCCC1C1CCOCC1` (stereo not drawn) [Compound 413], the IC50 was > 45 µM.
With `COc1ccc(-c2cc(C(=O)N3CCC[C@H]3c3ccccc3)no2)cn1` [Compound 410] the figure was 27.1 µM; with `O=C(c1cc(-c2ccco2)on1)N1CC2(CCC2)C1` [Compound 246], > 45 µM.
In the case of `O=C(Nc1cnn(Cc2ccccc2)c1)c1cc(Cl)on1` [Compound 180], the half-inhibitory concentration (IC50) is > 45 µM.
In turn, `COC1(c2cc(C(=O)Nc3cnn(Cc4cccc(F)c4)c3)no2)CCC1` [Compound 115, N-(1-(3-fluorobenzyl)-1H-pyrazol-4-yl)-5-(1-methoxycyclobutyl)isoxazole-3-carboxamide] came in with an IC50 of 0.34 µM.
Next, `COc1ccccc1C1CCCN1C(=O)c1cc(-c2ccc3c(c2)OCO3)on1` (stereo not drawn) [Compound 364]: > 45 µM; `O=C(c1cc(-c2ccc3c(c2)OCO3)on1)N1C[C@H](F)C[C@H]1c1ccccc1` [Compound 420]: > 45 µM.
With `COc1ccc(-c2cc(C(=O)N3CC(Cc4ccccc4)C3)no2)nn1` [Compound 256] the figure was > 45 µM.
On to `O=C(Nc1cnn(Cc2cccc(Cl)c2)c1)c1cc(-c2ccco2)on1` [Compound 22, N-[1-[(3-chlorophenyl)methyl]pyrazol-4-yl]-5-(2-furyl)isoxazole-3-carboxamide], for which the IC50 was > 45 µM.
Next, `O=C(Nc1cnn(Cc2ccccc2Cl)c1)c1cc(-c2ccco2)on1` [Compound 23, N-[1-[(2-chlorophenyl)methyl]pyrazol-4-yl]-5-(2-furyl)isoxazole-3-carboxamide]: > 45 µM.
The compound “N-(1-(3-fluorobenzyl)-1H-pyrazol-4-yl)-5-(pyrimidin-4-yl)isoxazole-3-carboxamide [Compound 90]” gave an IC50 of 1.1 µM.
With `N#Cc1ccccc1-c1cc(C(=O)N2CCC[C@H]2c2ccccc2)no1` [Compound 402] the figure was > 45 µM; with `O=C(Nc1cnn(Cc2ccccc2F)c1)c1cc(-c2ccco2)on1` [Compound 19, N-[1-[(2-fluorophenyl)methyl]pyrazol-4-yl]-5-(2-furyl)isoxazole-3-carboxamide], 0.36 µM.
With `O=C(Nc1cnn(Cc2cnccc2C(F)(F)F)c1)c1cc(-c2ccccc2)on1` [Compound 160, 5-phenyl-N-(1-((4-(trifluoromethyl)pyridin-3-yl)methyl)-1H-pyrazol-4-yl)isoxazole-3-carboxamide] the figure was > 45 µM.
Next, `O=C(Nc1cnn(Cc2cccc(F)c2)c1)c1cc(-c2cnco2)on1` [Compound 86, N-(1-(3-fluorobenzyl)-1H-pyrazol-4-yl)-5-(oxazol-5-yl)isoxazole-3-carboxamide]: 0.188 µM; `O=C(c1cc(-c2ccccc2)on1)N1CCC(c2ccccc2C(F)(F)F)CC1` [Compound 289, (5-phenylisoxazol-3-yl)-[4-[2-(trifluoromethyl)phenyl]-1-piperidyl]methanone]: > 45 µM; `COC1CCN(c2cc(C(=O)N3CC(c4ccccc4)C3)no2)CC1` [Compound 249]: > 45 µM.
Compound `O=C(Nc1cnn(Cc2cccc(F)c2)c1)c1cc(C2=CCCCC2)on1` [Compound 85, 5-cyclohexenyl-N-(1-(3-fluorobenzyl)-1H-pyrazol-4-yl)isoxazole-3-carboxamide] had a concentration for half-maximal inhibition (IC50) of 0.011 µM.
Next, `O=C(Nc1cnn(Cc2cccc(F)c2)c1)c1noc2c1CCCC2` [Compound 193, N-{1-[(3-fluorophenyl)methyl]-1H-pyrazol-4-yl}-4,5,6,7-tetrahydro-1,2-benzoxazole-3-carboxamide]: 0.01 µM; `CO[C@H]1CCN(c2cc(C(=O)Nc3cnn(Cc4ccccc4)c3)no2)C1` [Compound 189, (S)—N-(1-benzyl-1H-pyrazol-4-yl)-5-(3-methoxypyrrolidin-1-yl)isoxazole-3-carboxamide]: 0.065 µM; `O=C(Nc1cnn(Cc2cnccc2C(F)(F)F)c1)c1cc(-c2ccc3c(c2)OCO3)on1` [Compound 199, 5-(2H-1,3-benzodioxol-5-yl)-N-(1-{[4-(trifluoromethyl)pyridin-3-yl]methyl}-1H-pyrazol-4-yl)-1,2-oxazole-3-carboxamide]: > 45 µM.
`O=C(c1cc(-c2ccc3c(c2)OCO3)on1)N1CCCC1c1ccc(Br)cc1` (stereo not drawn) [Compound 389]: the IC50 was > 45 µM.
With `O=C(c1cc(-c2ccc3c(c2)OCO3)on1)N1CCCC1c1ccncc1F` (stereo not drawn) [Compound 460] the figure was > 45 µM; with `N#Cc1cccc(C2CCCN2C(=O)c2cc(-c3ccc4c(c3)OCO4)on2)c1` (stereo not drawn) [Compound 396], 38.9 µM.
Turning to `O=C(c1cc(-c2ccccc2)on1)N1CCCC1c1ccccc1` (stereo not drawn) [Compound 387], the IC50 was > 45 µM.
As for `O=C(c1cc(-c2ccccc2)on1)N1CCC(c2cccc(F)c2)CC1` [Compound 307, [4-(3-fluorophenyl)-1-piperidyl]-(5-phenylisoxazol-3-yl)methanone], the IC50 is > 45 µM.
Next, `O=C(Nc1cnn(Cc2ccccc2)c1)c1cc(-c2ccco2)on1` [Compound 4, N-(1-benzyl-1H-pyrazol-4-yl)-5-(furan-2-yl)isoxazole-3-carboxamide]: 0.09 µM; `O=C(c1cc(-c2ccc3c(c2)OCO3)on1)N1CCCC1c1ccccc1` (stereo not drawn) [Compound 354]: > 45 µM.
With `COc1ccc(C2CCCN2C(=O)c2cc(-c3ccc(OC(F)(F)F)cc3)on2)cc1` (stereo not drawn) [Compound 380] the figure was > 45 µM; with `COc1ccc([C@H]2CCCN2C(=O)c2cc(-c3ccc4c(c3)OCO4)on2)cc1` [Compound 360], > 45 µM.
Next, `O=C(NC1CCN(c2ccccc2)C1)c1cc(-c2ccco2)on1` (stereo not drawn) [Compound 343]: > 45 µM; `COc1ccc(C2CCCN2C(=O)c2cc(-c3ccc4c(c3)OCO4)on2)cc1` (stereo not drawn) [Compound 356]: > 45 µM.
With `COc1ccc(-c2cc(C(=O)N3CCCC3c3ccccc3F)no2)nc1` (stereo not drawn) [Compound 415], 40.2 µM corresponded to half-maximal inhibition (IC50).
With `O=C(Nc1cnn(Cc2cccc(F)c2)c1)c1cc(-c2ccco2)on1` [Compound 30, N-[1-[(3-fluorophenyl)methyl]pyrazol-4-yl]-5-(2-furyl)isoxazole-3-carboxamide] the figure was 0.01 µM.
The compound `O=C(Nc1cnn(Cc2ccccc2)c1)c1cc(N2CC[C@@H](O)C2)on1` [Compound 186, (R)—N-(1-benzyl-1H-pyrazol-4-yl)-5-(3-hydroxypyrrolidin-1-yl)isoxazole-3-carboxamide] showed an IC50 of 2 µM.
